Source: US20230055705A1, “SUBSTITUTED THIOPHENE CARBOXAMIDES AND DERIVATIVES THEREOF” (Bayer Aktiengesellschaft, priority 2019, published 2023)

Assay: LogP by HPLC on reversed phase columns (EEC directive 79/831 Annex V.A8)
Type: physicochemical
Conditions: not given
Description: In the above tables, measurement of LogP values was performed according to EEC directive 79/831 Annex V.A8 by HPLC (High Performance Liquid Chromatography) on reversed phase columns with the following methods: • ^[a]
Calibration was done with straight-chain alkan2-ones (with 3 to 16 carbon atoms) with known LogP values (measurement of LogP values using retention times with linear interpolation between successive alkanones). Lambda-max-values were determined using UV-spectra from 200 nm to 400 nm and the peak values of the chromatographic signals.
In the case of COC(=O)C1(NC(=O)c2sc(Cl)c(Cl)c2Cl)CCC1 [I.112], the LogP is reported as 3.69^[a].
In the case of N#CC(Cc1ccccc1)NC(=O)c1sc(Cl)c(Cl)c1Cl (centres unmarked) [I.035], the LogP is reported as 4.13^[a].
For CC(C)C(C#N)NC(=O)c1sc(Cl)c(Cl)c1Cl (centres unmarked) [I.130], the LogP was 3.81^[a].
With O=C(CNC(=O)c1sc(Cl)c(Cl)c1Cl)Sc1ccccc1 [I.042] the LogP was 4.27^[a].
In the case of O=C(CNC(=O)c1sc(Cl)c(Cl)c1Cl)NO [I.148], the LogP is reported as 1.70^[a].
With CCSC(=O)C(NC(=O)c1sc(Cl)c(Cl)c1Cl)C(C)C (centres unmarked) [I.040] the LogP was 5.34^[a].
In the case of NC(=O)CCC(NC(=O)c1sc(Cl)c(Cl)c1Cl)C(=O)O (centres unmarked) [I.002], the LogP is reported as 1.73^[a].
In the case of COC(=O)C(CCSC(C)=O)NC(=O)c1sc(Cl)c(Cl)c1Cl (centres unmarked) [I.127], the LogP is reported as 3.94^[a].
With CNC(=S)CNC(=O)c1sc(Cl)c(Cl)c1Cl [I.128] the LogP was 2.89^[a].
With CSCCC(NC(=O)c1sc(Cl)c(Cl)c1Cl)C(=O)O (centres unmarked) [I.051] the LogP was 3.01^[a].
With O=C(NC(CO)C(=O)O)c1sc(Cl)c(Cl)c1Cl (centres unmarked) [I.056] the LogP was 1.94^[a].
With COC(=O)C1(NC(=O)c2sc(Cl)c(Cl)c2Cl)CC(F)(F)C1 [I.088] the LogP was 3.65^[a].
With CCOC(=O)C(NC(=S)c1sc(Cl)c(Cl)c1Cl)C(C)C (centres unmarked) [I.092] the LogP was 6.17^[a].
With COC(=O)C1(NC(=O)c2sc(Cl)c(Cl)c2Cl)CCOCC1 [I.071] the LogP was 3.00^[a].
For COC(=O)CC(C)NC(=O)c1sc(Cl)c(Cl)c1Cl (centres unmarked) [I.135], the LogP was 3.64^[a].
With CCOC(=O)C1(NC(=O)c2sc(Cl)c(Cl)c2Cl)CCCC1 [I.070] the LogP was 4.61^[a].
For CCOC(=O)C(NC(=O)c1sc(Cl)c(Cl)c1Cl)C(=O)OCC [I.006], the LogP was 4.19^[a].
For CCOC(=O)C(NC(=O)c1sc(Cl)c(Cl)c1Cl)C(F)(F)F (centres unmarked) [I.123], the LogP was 4.47^[a].
In the case of COC(=O)C(C)(Cc1ccccc1)NC(=O)c1sc(Cl)c(Cl)c1Cl (centres unmarked) [I.122], the LogP is reported as 5.11^[a].
For O=C1SCCC1NC(=S)c1sc(Cl)c(Cl)c1Cl (centres unmarked) [I.019], the LogP was 4.37^[a].
With O=C(N[C@H]1CCOC1=O)c1sc(Cl)c(Cl)c1Cl [I.121] the LogP was 2.49^[a].
For CCSC(=O)CNC(=O)c1sc(Cl)c(Cl)c1Cl [I.036], the LogP was 3.75^[a].
In the case of N#CC1(NC(=O)c2sc(Cl)c(Cl)c2Cl)CCC(C2CCCCC2)CC1 (centres unmarked) [I.134], the LogP is reported as 6.41^[a].
In the case of CCOC(=O)C1(NC(=S)c2sc(Cl)c(Cl)c2Cl)CC1 [I.037], the LogP is reported as 4.61^[a].
With O=C1CC(NC(=O)c2sc(Cl)c(Cl)c2Cl)CCN1 (centres unmarked) [I.030] the LogP was 1.93^[a].
With CCNC(=O)SC[C@H](NC(=O)c1sc(Cl)c(Cl)c1Cl)C(=O)OC [I.141] the LogP was 3.36^[a].
With O=C(CNC(=O)c1sc(Cl)c(Cl)c1Cl)SCc1ccccc1 [I.041] the LogP was 4.56^[a].
For CC(C)(C#N)NC(=O)c1sc(Cl)c(Cl)c1Cl [I.132], the LogP was 3.19^[a].
With O=C(NC1(C(=O)OCc2ccccc2)CCC1)c1sc(Cl)c(Cl)c1Cl [I.100] the LogP was 5.00^[a].
In the case of COC(=O)C(NC(=O)c1sc(Cl)c(Cl)c1Cl)(C1CC1)C1CC1 [I.005], the LogP is reported as 4.51^[a].
For CN(C)C(=O)CNC(=O)c1sc(Cl)c(Cl)c1Cl [I.065], the LogP was 2.47^[a].
With CCNC(=O)[C@@H](NC(=O)c1sc(Cl)c(Cl)c1Cl)C(C)C [I.094] the LogP was 3.43^[a].
With CCOC(=O)CCNC(=O)c1sc(Cl)c(Cl)c1Cl [I.026] the LogP was 3.46^[a].
With CCOC(=O)C1(CNC(=O)c2sc(Cl)c(Cl)c2Cl)CC1 [I.045] the LogP was 4.27^[a].
In the case of NC(=S)C1(NC(=O)c2sc(Cl)c(Cl)c2Cl)CC1 [I.105], the LogP is reported as 2.62^[a].
With N#CC(NC(=O)c1sc(Cl)c(Cl)c1Cl)c1ccccc1 (centres unmarked) [I.034] the LogP was 3.92^[a].
With O=C(NC(Cc1c[nH]c2ccccc12)C(=O)O)c1sc(Cl)c(Cl)c1Cl (centres unmarked) [I.003] the LogP was 3.31^[a].
In the case of CCSC(=O)C(CC(C)C)NC(=O)c1sc(Cl)c(Cl)c1Cl (centres unmarked) [I.039], the LogP is reported as 5.54^[a].
In the case of O=C(NC1CCCCNC1=O)c1sc(Cl)c(Cl)c1Cl (centres unmarked) [I.125], the LogP is reported as 2.93^[a].
For COC(=O)[C@H](Cc1ccccc1)NC(=O)[C@H](CC(=O)O)NC(=O)c1sc(Cl)c(Cl)c1Cl [I.074], the LogP was 3.19^[a].
With CCOC(=O)CN(C(=O)c1sc(Cl)c(Cl)c1Cl)C1CC1 [I.116] the LogP was 3.78^[a].
With COC(=O)C(C1CC1)N(O)C(=O)c1sc(Cl)c(Cl)c1Cl (centres unmarked) [I.021] the LogP was 3.00^[a].
For COC(=O)[C@H](CCC(N)=O)NC(=O)c1sc(Cl)c(Cl)c1Cl [I.082], the LogP was 2.19^[a].
In the case of CCOC(=O)C1(NC(=O)c2sc(Cl)c(Cl)c2Cl)CSC1 [I.085], the LogP is reported as 3.92^[a].
For CCOC(=O)C1(NC(=O)c2sc(Cl)c(Cl)c2Cl)CCOCC1 [I.077], the LogP was 3.39^[a].
In the case of CCOC(=O)CN(OC)C(=O)c1sc(Cl)c(Cl)c1Cl [I.018], the LogP is reported as 3.64^[a].
With CCOC(=O)[C@H](CO)NC(=O)c1sc(Cl)c(Cl)c1Cl [I.083] the LogP was 2.78^[a].
For O=C(NC1CCOC1=O)c1sc(Cl)c(Cl)c1Cl (centres unmarked) [I.029], the LogP was 2.48^[a].
With CN(C)C(=S)C1(NC(=O)c2sc(Cl)c(Cl)c2Cl)CC1 [I.115] the LogP was 3.20^[a].
For N#CNC(=O)CNC(=O)c1sc(Cl)c(Cl)c1Cl [I.106], the LogP was 2.45^[a].
For N#CC1(NC(=O)c2sc(Cl)c(Cl)c2Cl)CCC(c2ccccc2)CC1 (centres unmarked) [I.131], the LogP was 5.00^[a].
For COC(=O)[C@H](CC(=O)O)NC(=O)c1sc(Cl)c(Cl)c1Cl [I.081], the LogP was 2.46^[a].
With O=C(NC1CCNC1=O)c1sc(Cl)c(Cl)c1Cl (centres unmarked) [I.004] the LogP was 1.98^[a].
In the case of CN(CC#N)C(=O)C1(NC(=O)c2sc(Cl)c(Cl)c2Cl)CC1 [I.052], the LogP is reported as 2.44^[a].
With CCOC(=O)C1(C2(NC(=O)c3sc(Cl)c(Cl)c3Cl)CC2)CC1 [I.047] the LogP was 4.83^[a].
In the case of COC(=O)C1(NC(=O)c2sc(Cl)c(Cl)c2Cl)CCC(F)(F)CC1 [I.072], the LogP is reported as 3.99^[a].
For NC(=O)C1(NC(=O)c2sc(Cl)c(Cl)c2Cl)CC1 [I.060], the LogP was 2.00^[a].
For CONC(=O)C1(NC(=O)c2sc(Cl)c(Cl)c2Cl)CC1 [I.055], the LogP was 2.14^[a].
With CCOC(=O)C(NC(=O)c1sc(Cl)c(Cl)c1Cl)OC (centres unmarked) [I.017] the LogP was 3.57^[a].
With N#CCNC(=O)CNC(=O)c1sc(Cl)c(Cl)c1Cl [I.062] the LogP was 2.21^[a].
In the case of O=C(N[C@H]1CCCNC1=O)c1sc(Cl)c(Cl)c1Cl [I.126], the LogP is reported as 2.24^[a].
With O=C(N[C@H]1CCSC1=O)c1sc(Cl)c(Cl)c1Cl [I.043] the LogP was 3.24^[a].
In the case of COC(=O)C1(NC(=O)c2sc(Cl)c(Cl)c2Cl)CCOC1 (centres unmarked) [I.076], the LogP is reported as 3.00^[a].
With O=C(NC1CCCNC1=O)c1sc(Cl)c(Cl)c1Cl (centres unmarked) [I.031] the LogP was 2.20^[a].
In the case of CCOC(=O)C(CCSC)NC(=O)c1sc(Cl)c(Cl)c1Cl (centres unmarked) [I.084], the LogP is reported as 4.47^[a].
For CNC(=O)CNC(=O)c1sc(Cl)c(Cl)c1Cl [I.073], the LogP was 2.07^[a].
With CC1(C)SC(=O)C1NC(=O)c1sc(Cl)c(Cl)c1Cl (centres unmarked) [I.024] the LogP was 4.04^[a].
With CC(C)OC(=O)C1(C2(NC(=O)c3sc(Cl)c(Cl)c3Cl)CC2)CC1 [I.027] the LogP was 5.35^[a].
For CCOC(=O)C(CC1CC1)NC(=O)c1sc(Cl)c(Cl)c1Cl (centres unmarked) [I.058], the LogP was 4.81^[a].
With O=C(NC1(C(=O)OC2CCCCC2)CCC1)c1sc(Cl)c(Cl)c1Cl [I.103] the LogP was 5.84^[a].

Same assay, conditions: reversed phase HPLC columns, given in the preparation examples; method not marked
In the case of O=C(NC1(C(=O)O)CC1)c1sc(Cl)c(Cl)c1Cl [1-{[(3,4,5-trichloro-2-thienyl)carbonyl]amino}cyclopropanecarboxylic acid], the chromatographic logP is reported as 2.39.
